From US20230107216A1, “PANTETHEINE DERIVATIVES AND USES THEREOF” (Comet Therapeutics, Inc., priority 2018, published 2023)
Read-outs that look alike come from different tables or passages of the source.

What was measured:
[1] = system: Peripheral blood mononuclear cells co-cultured with B-cells (BT system); conditions: procedure of Example 829
[2] = system: Peripheral blood mononuclear cells co-cultured with venular endothelial cells (HUVEC) (LPS system); assay: BioMAP LPS system; format: cell-based, human; conditions: procedure of Example 827
[3] = system: Dermal fibroblasts (HDF3CGF system); assay: BioMAP HDF3CGF system (IL-1β, TNFα, IFNγ, EGF, bFGF, PDGF-BB); format: cell-based, human
[4] = system: tyrosine hydroxylase positive mesencephalic neurons injured by MPP+; assay: Neuroprotective effect on damage induced by MPP+ on culture of mesencephalic neurons; format: cell-based; conditions: Rattus norvegicus, Neuron, MPP+ 50 μM, 48h, read-out: % reversion of TH positive neurons (MPTP-mediated degradation of dopaminergic neurons)
Source text: A female Wistar rat (Janvier; France) of 15 days gestation was terminated by cervical dislocation, the fetuses were removed from the uterus and their brains were harvested and placed in ice-cold medium (Leibovitz's L15 medium, Gibco). Only ventral mesencephalic flexure was used for the cell preparations. The midbrain was dissociated by trypsinization. The reaction was stopped, and the suspension was triturated and centrifuged. The pellet of dissociated cells was resuspended in chemically defined medium consisted of Neurobasal (Gibco), containing B27 supplement (Gibco) and L-glutamine (Gibco), 10 ng/ml (BDNF; Pepro Tech, France) and 1 ng/ml (GDNF; Pepro Tech).
Viable primary rat embryo mesencephalic cells were counted and seeded on 96-multi-wells plate precoated with poly-L-lysine. Cells were maintained in a humidified incubator at 37° C. in 5% CO2-95% air atmosphere and medium changed on day 2. On day 6, the culture medium was removed and replaced by new media without neurotrophic factors containing the compounds of the present disclosure (50-10 μM) or vehicle (0.1% DMSO). After 1h exposure, injury of mesencephalon neuronal cultures was induced by MPP^+ (50 μM) for further 48h. A mixture of the growth factors GDNF (1 ng/ml) and BDNF (10 ng/ml) were used as reference compound. On day 8, the tyrosine hydroxylase positive neurons were evaluated. Cultures were fixed 30 min at 4° C. with paraformaldehyde in PBS (4%, Thermo Scientific, 28908). After, cells were permeabilized with 0.1% Triton X100 for 30 min, saturated with PBS containing 3% of BSA (bovine serum albumin) and incubated 2h with anti-tyrosine hydroxylase antibody (Sigma, 1:10000; clone TH-2) at 1/10000 in PBS containing 0.5% of BSA. Cells were washed three times with PBS containing 0.5% of BSA and incubated 1h with goat anti mouse antibody coupled with AF488 (Invitrogen A11001) diluted at 1/1000 in PBS containing 0.5% of BSA. Finally, nuclei were stained with DAPI at 1/1000 in PBS containing 0.5% of BSA. After rinsing with PBS, the plate was visualized and examined with Cell Insight HCS (Thermo Scientific) to determine the number of tyrosine hydroxylase positive cells per well.
The results for each well were expressed as a percentage by setting the density of tyrosine hydroxylase positive cells under control conditions to 100%. Then the result for each condition was reported as mean±SEM from 4 independent cultures.
A global analysis of the data was performed using a one-way analysis of variance (ANOVA), followed by Fisher's Protected Least Significant Difference when applicable. The level of significance was set to p<0.05.

[5] = system: Bronchial epithelial cells (BE3C system); assay: BioMAP BE3C system (IL-1β, TNFα, IFNγ); format: cell-based, human; conditions: procedure of Example 831

CC(=O)SCCNC(=O)CCNC(=O)[C@H](O)C(C)(C)COC(=O)[C@@H](N)Cc1ccc(O)c(O)c1 [Compound 498, (3R)-3-[(2-[[2-(acetylsulfanyl)ethyl]carbamoyl]ethyl)carbamoyl]-3-hydroxy-2,2-dimethylpropyl (2S)-2-amino-3-(3,4-dihydroxyphenyl)propanoate]
% increase in sTNFα ([1]; 1 uM): ≥10% | % increase in sIL-2 ([1]; 10 uM): ≥20% | % decrease in sTNFα ([2]; 1 uM): ≥10% | inhibition at 1 µM ([2]; Homo sapiens, HUVEC, 24 h, 1 uM, read-out: % decrease in IL-8): ≥ 20% | inhibition at 1 µM ([2]; Homo sapiens, HUVEC, 24 h, 1 uM, read-out: % decrease in sPGE2): ≥ 10% | inhibition at 10 µM ([2]; Homo sapiens, HUVEC, 24 h, 10 uM, read-out: % decrease in IL-1α): ≥ 10% | % decrease in TIMP-2 ([3]; 1 uM): ≥10% | % increase in M-CSF ([3]; 10 uM): ≥10% | % increase in SRB ([3]; 10 uM): ≥10% | % decrease in Collagen I ([3]; 10 uM, procedure of Example 833): ≥10% | inhibition at 10 µM ([3]; Homo sapiens, Fibroblast, 24 h, 10 uM, read-out: % decrease in Collagen III): ≥ 10% | inhibition at 10 µM [4]: ≥ 60% | % increase in MMP-1 ([5]; 1 uM): ≥10% | % decrease in tPA ([5]; 10 uM): ≥10%
